Values quoted from earlier work in publication PMC7178755 (Toxicology and applied pharmacology, 2019).
Like-named read-outs stand apart in the source and are kept apart here. Marks after values point to notes of the source that are not given here.

How the values were obtained:
[1] = rat uterotrophic assay; administered orally; ref Conley et al., 2016; cited from earlier work
[2] = free BPA; female CD-1 mice; 100 mg/kg gavage; ref Taylor et al., (2015); cited from earlier work
[3] = free BPA; female Rhesus Monkeys; 0.4 mg/kg oral; ref Taylor et al., (2015); cited from earlier work
[4] = free BPA; female SD rats; 0.1 mg/kg gavage; ref Dorege et al., (2010); cited from earlier work
[5] = rat, in vivo, 100 mg/kg; cited from earlier work

| Structure (SMILES) | ED50 [1] [mg/kg/day] | AUC0−∞ [2] | Cmax [2] [nM] | Dose-normalized AUC0−∞ [2] | Dose-normalized Cmax [2] | Tmax [2] [h] | AUC0−∞ [3] | Cmax [3] [nM] | Half-life (terminal, beta) [3] [h] | Tmax [3] [h] | AUC0−∞ [4] | Cmax [4] [nM] | Dose-normalized AUC0−∞ [4] | Dose-normalized Cmax [4] | time of maximum plasma concentration [5] [min] |
| --- | --- | --- | --- | --- | --- | --- | --- | --- | --- | --- | --- | --- | --- | --- | --- |
| CC(C)(c1ccc(O)cc1)c1ccc(O)cc1 [BPA, bisphenol A] | 1118.0 | 13.1^i nmol.h/mL | 4160 | 29.8 (nmol.h/mL)/(mmol/kg) | 9.47 (nmol/mL)/(mmol/kg) | 1 | 0.0589^i nmol.h/mL | 17.3 | 8.88 | 1 | 0.0026^g nmol.h/mL | 0.39 | 5.91 (nmol.h/mL)/(mmol/kg) | 0.886 (nmol/mL)/(mmol/kg) |  |
| O=C(O)[C@H]1O[C@@H](Oc2ccc(C(c3ccc(O)cc3)(C(F)(F)F)C(F)(F)F)cc2)[C@H](O)[C@@H](O)[C@@H]1O [BPAF-glucuronide] |  |  |  |  |  |  |  |  |  |  |  |  |  |  | 30 |
